Legend:
[1] = test system: MIN6 cells expressing proinsulin-luciferase construct; assay: High-throughput luciferase secretion screen, proinsulin-luciferase reporter, 384-well; type: cell-based, mouse; details: for Z-score / Z-score With Glucose / Z-score Without Glucose: luciferase secretion, 30 μM, 1 hour; for Z-score: 1600 compound screen, Z-score vs DMSO wells; for Z-score / Z-score With Glucose: 100 mg/dL glucose; for Z-score With Glucose / Z-score Without Glucose: repeated 1600-compound screen; for Z-score Without Glucose: absence of glucose
Description: MIN6 and INS-1E cells were expanded to 80% confluence in their respective growth media, washed once in PBS and incubated for 1 hour at 37° C. in KRB without glucose. Cells were then dissociated, spun at 300 g×2 minutes, resuspended in fresh KRB without glucose and filtered through 40 μm mesh (Becton Dickenson®). Next, the cells were counted and diluted in KRB to 1×10^6 cells per mL, and glucose was added as required for each experiment. Cells were then seeded in 384-well format, 3×10^4 cells in 30 μL per well, using a Multidrop™ Combi device (Thermo Scientific®, Billerica, Mass.). Compounds from the Pharmakon 1600 Collection (Microsource Discovery Systems™, Gaylordsville, Conn.) were pinned into each well using a CyBio® Vario (CyBio®, Jena, Germany) to a final concentration of 30 μM, and the plates were then incubated for 1 hour at 37° C. The plates were then spun at 300 g×2 minutes and the supernatant transferred to a new 384-well plate. Coelenterazine substrate was then added to a final concentration of 20 μM and luciferase activity determined using a standard plate reader (Biotek®).
For the high-throughput screens, the Z-score of each test compound was calculated using the formula: […]
where x is the log-transformed, signal decay-adjusted luciferase signal from a compound-treated well, μ is the mean of the log-transformed luciferase signals from the DMSO-treated wells on the same plate, and a is the standard deviation of the log-transformed luciferase signals of the DMSO-treated wells across all plates (to allow for cross-plate comparison of compounds). Prior to calculating the Z-score, a row-based correction factor was applied to all luciferase readings to adjust for the rapid signal decay occurring during the course of each 384-well plate read. The signal decay was modeled as a logarithmic function (Microsoft® Excel) and then used to adjust each well's luciferase reading based on the corresponding row within the plate.
We performed a pilot chemical screen at a substimulatory glucose concentration (100 mg/dL) in MIN6 cells using a collection of 1600 known bioactive small molecules, with the sulfonylurea glipizide included as a positive control. […] Several commonly used drugs without known links to beta-cell function caused significant increases in luciferase secretion in our assay (compounds summarized in Table 1).
As there is a well-recognized need for glucose-dependent small-molecule agonists of insulin secretion, we subsequently evaluated whether our assay could be adapted to find such secretagogues. We repeated the 1600-compound screen in the presence and absence of a substimulatory glucose concentration (100 mg/dL).

[2] = test system: Alpha TC1 mouse alpha cell line; assay: Luciferase secretion, proglucagon-luciferase (G2) reporter in alpha cells; type: cell-based; details: glucose 0-300 mg/dL (0-16.7 mM)
Description: The preglucagon G^2 construct was introduced into the Alpha TC1 mouse alpha cell line. Cells were stimulated with IBMX, arginine, or potassium chloride (KCl) and varying amounts of glucose in the range of 0-300 mg/dL (0-16.7 mM). Luciferase activity of the supernatant was determined (FIG. 6).

[3] = test system: MIN6 mouse beta cell line; assay: Luciferase secretion, preproamylin-Gaussia luciferase (PAG) reporter; type: cell-based; details: 1 hour at the indicated glucose concentrations; 25 uM glipizide, 50 uM IBMX, 20 uM forskolin, 40 mM KCl, 20 uM PMA
Description: FIG. 4 is a graph showing the pre-proamylin-luciferase reporter in MIN6 cells responds as predicted to known insulin secretagogues. Cells were treated for 1 hour at the indicated glucose concentrations with either DMSO, 25 uM glipizide, 2.5 uM glucokinase activator (GKA), 50 uM 3-isobutyl-1-methylxanthine (IBMX), 20 uM forskolin, 40 mM potassium chloride (KCl), or 20 uM phorbol myristate acetate (PMA).
For standard secretion assays, MIN6 and INS-1E cells were plated in 96-well format at a density of 4×10^4 cells per well in 100 μL of their respective growth media and incubated overnight at 37° C. in 5% CO2 to allow attachment. Cells were washed once with PBS and incubated for 1 hour at 37° C. in sterile, 0.45 μm-filtered Krebs Ringer Buffer (KRB) containing 138 mM NaCl, 5.4 mM KCl, 2.6 mM MgCl2, 2.6 mM CaCl2, 5 mM NaHCO3, 10 mM HEPES and 5 g/L bovine serum albumin (Sigma®). The cells were then washed in KRB once and stimulated for 1 hour in 100 μL of fresh KRB containing varying amounts of glucose and compounds. The insulin concentration was determined using an insulin ELISA (ALPCO®) with the supplied protocol. Luciferase activity was determined from the same samples by adding the coelenterazine substrate (Nanolight®) to the supernatant to a final concentration of 20 μM and reading on a standard plate reader (Biotek™, Winooski, Vt.).
The preproamlyin constructs was introduced into the MIN6 mouse beta cell line (FIGS. 3A and 3B).

GLUTag mouse L-cell line = assay: Luciferase secretion, proglucagon-luciferase (G2) reporter in L cells; type: cell-based
Description: The proglucagon G^2 construct was also introduced into the GLUTag mouse L-cell line. Cells were stimulated with Forskolin/IBMX, KCl, glipizide, PMA, and L-glutamine. Luciferase activity of the supernatant was determined.

Compound: OC(CCN1CCCCC1)(c1ccccc1)C1CCCCC1 (stereo not drawn) [Trihexyphenidyl]
- Z-score [1]: 50.5

Compound: COc1c2ccoc2cc2oc(=O)ccc12 [Bergapten]
- Z-score With Glucose [1]: 20.9
- Z-score Without Glucose [1]: 2.9

Compound: N=C(N)NCCC[C@H](N)C(=O)O [arginine]
- luciferase secretion (luciferase activity of the supernatant) [2]: secreted luciferase

Compound: CCN(CC)CCOC(=O)C(Cc1cccc2ccccc12)CC1CCCO1 (stereo not drawn) [Nafronyl]
- Z-score [1]: 25.4
- Z-score With Glucose [1]: 17.8
- Z-score Without Glucose [1]: 3.4

Compound: CC(=O)[C@@]1(O)CC[C@H]2[C@@H]3CCC4=CC(=O)CC[C@]4(C)[C@H]3CC[C@@]21C [Hydroxyprogesterone]
- Z-score Δ ([1]; difference of Z-score with and without glucose): 15.6
- Z-score With Glucose [1]: 18.3
- Z-score Without Glucose [1]: 2.7

Compound: Clc1ccc(Cn2c(CN3CCCC3)nc3ccccc32)cc1 [Clemizole]
- Z-score With Glucose [1]: 12.2
- Z-score Without Glucose [1]: 0.4

Compound: O=C(CCCN1CCC2(CC1)C(=O)NCN2c1ccccc1)c1ccc(F)cc1 [Spiperone]
- Z-score With Glucose [1]: 9.0
- Z-score Without Glucose [1]: −2.8

Compound: Nc1c2c(nc3ccccc13)CCCC2 [Tacrine]
- Z-score [1]: 38.8

Compound: CCCCCCCCCCCCCC(=O)O[C@@H]1[C@@H](C)[C@@]2(O)[C@@H](C=C(CO)C[C@]3(O)C(=O)C(C)=C[C@@H]23)[C@@H]2C(C)(C)[C@]12OC(C)=O [PMA, phorbol myristate acetate]
- luciferase activity (luminescence) [3]: increased luminescence in a dose-dependent manner
- luciferase secretion (luciferase activity of the supernatant) (GLUTag mouse L-cell line): secreted luciferase

Compound: C[C@@H]1CC(=O)NN=C1c1ccc(NN=C(C#N)C#N)cc1 [Levosimendan]
- Z-score [1]: 40.7

Compound: CCCNCC(O)COc1ccccc1C(=O)CCc1ccccc1 (stereo not drawn) [Propafenone]
- Z-score With Glucose [1]: 10.5
- Z-score Without Glucose [1]: 1.5

Compound: [Cl-].[K+] [KCl, potassium chloride]
- luciferase activity (luminescence) [3]: increased luminescence in a dose-dependent manner
- luciferase secretion (luciferase activity of the supernatant) [2]: secreted luciferase
- luciferase secretion (luciferase activity of the supernatant) (GLUTag mouse L-cell line): secreted luciferase

Compound: NC(=O)CC[C@H](N)C(=O)O [L-glutamine]
- luciferase secretion (luciferase activity of the supernatant) (GLUTag mouse L-cell line): no secretion of luciferase

Compound: CN(C)CC[C@@H](c1ccc(Cl)cc1)c1ccccn1 [(S)-chlorpheniramine]
- Z-score [1]: 31.8

Compound: COc1ccccc1OCCNCC(O)COc1cccc2[nH]c3ccccc3c12 (stereo not drawn) [Carvedilol]
- Z-score Without Glucose [1]: 1.5

Compound: Cc1cnc(C(=O)NCCc2ccc(S(=O)(=O)NC(=O)NC3CCCCC3)cc2)cn1 [glipizide]
- luciferase secretion ([1]; screen in presence and absence of 100 mg/dL glucose): caused luciferase secretion regardless of the ambient glucose level
- luciferase activity (luminescence) [3]: did not increase luciferase activity
- luciferase secretion (luciferase activity of the supernatant) (GLUTag mouse L-cell line): no secretion of luciferase

Compound: CC(C)Cn1c(=O)n(C)c(=O)c2[nH]cnc21 [IBMX, 3-isobutyl-1-methylxanthine]
- luciferase activity (luminescence) [3]: increased luminescence in a dose-dependent manner
- luciferase secretion (luciferase activity of the supernatant) [2]: no secretion of luciferase

Compound: CCN(CC)CCNC(C(=O)OCCC(C)C)c1ccccc1 (stereo not drawn) [Camylofine]
- Z-score [1]: 23.8
- Z-score With Glucose [1]: 4.7
- Z-score Without Glucose [1]: 0.2

Compound: Nc1nc(N)c2nc(-c3ccccc3)c(N)nc2n1 [Triamterene]
- Z-score [1]: 76.3

Compound: Cc1ccccc1C(OCCN(C)C)c1ccccc1 (stereo not drawn) [Orphenadrine]
- Z-score [1]: 27.4

Compound: Oc1ccc(OCc2ccccc2)cc1 [Monobenzone]
- Z-score [1]: 38.7
- Z-score With Glucose [1]: 31.8
- Z-score Without Glucose [1]: 5.6

Reference: patent US10370697B2, “Propeptide-luciferase fusion proteins and methods of use thereof” (THE BROAD INSTITUTE, INC., priority 2011, dated 2019)
